From patent publication US20220387491A1, “METHODS OF MAKING CELLULAR THERAPIES” (Secura Bio, Inc., priority 2019, published 2022)
“Also recorded” adds a separate entry of the source.

Tests used:
PI3K-δ [1] = target: T1, PI3K-δ (Homo sapiens, UniProt O00329); assay: Whole blood assay, p-Akt S473 in LPS-stimulated monocytes; format: cell-based; design: from tissue; host or cells: whole blood; LPS-stimulated monocytes (gated by flow cytometry); conditions: for PI3K-δ inhibition at clinically achievable exposures (in words): whole blood assay related to clinical plasma exposure
Description: (§1) The relative effects of different PI3K inhibitors on PI3K-δ and PI3K-γ cell signaling downstream of LPS and fMLP, respectively, were assessed in whole blood using phosphorylated (p)-Akt serine-473 as the readout. Briefly, LPS-stimulated monocytes and fMLP-stimulated monocytes were cultured in the presence of 2 μg/mL LPS or 50 ng/mL fMLP, respectively. After 10 minutes of stimulation, red blood cells were lysed and remaining leukocytes were fixed, permeabilized and stained with CD45, CD3, CD45RA, CD14, CD19 and p-Akt S473 (D9E clone) antibodies. Data was acquired on an LSRII cytometer (BD Biosciences) equipped with at least 4 lasers (405, 488, 561, and 640 nm). Monocytes were gated and the percentage of positive p-Akt monocytes was measured. IC50 dose curves were generated and IC50 values calculated.
(§2) Whole blood potencies against PI3K-δ and PI3K-γ were measured through inhibition of p-Akt in LPS-stimulated monocytes and fMLP-stimulated monocytes, respectively. Whole blood assay IC50 values, which encompass enzyme inhibition, cell penetration, and protein binding of inhibitors, are related to reported clinical plasma exposures of each agent at recommended phase II dose (RP2D).

PI3K-γ [2] = target: T2, PI3K-γ (Homo sapiens, UniProt P48736); assay: Whole blood assay, p-Akt S473 in fMLP-stimulated monocytes; format: cell-based; design: from tissue; host or cells: whole blood; fMLP-stimulated monocytes (gated by flow cytometry); conditions: for PI3K-γ inhibition at clinically achievable exposures (in words): whole blood assay related to clinical plasma exposure
Description: Briefly, LPS-stimulated monocytes and fMLP-stimulated monocytes were cultured in the presence of 2 μg/mL LPS or 50 ng/mL fMLP, respectively. After 10 minutes of stimulation, red blood cells were lysed and remaining leukocytes were fixed, permeabilized and stained with CD45, CD3, CD45RA, CD14, CD19 and p-Akt S473 (D9E clone) antibodies. […] Monocytes were gated and the percentage of positive p-Akt monocytes was measured. IC50 dose curves were generated and IC50 values calculated.
as §2

[3] = test system: T cells from human donors or CLL patients; assay: Ex vivo T cell expansion; format: cell-based
T cells = assay: Expression of T cell exhaustion markers (TIM-3, LAG-3) by flow cytometry; format: cell-based, human
Description: (§3) These early memory T cells populations have been associated with CAR-T cells that induce complete remissions.

[4] = test system: T cells taken from CLL patients; assay: Proportion of early memory T cell populations; format: cell-based, human; conditions: 200 nM; compared with standard culture conditions
Description: as §3

CD19 CAR-T cells = assay: CAR-T-mediated cytotoxicity against tumor cells; format: cell-based; conditions: addition during generation of CD19 CAR-T cells
Description: as §3

[5] = read-out: Cmax (ss); reported clinical plasma exposure at recommended phase II dose (RP2D); cited from earlier work
PI3K-δ [6] = target: T1, PI3K-δ; assay: PI3K-δ target inhibition in follicular lymphoma patients after oral dosing; format: in vivo; design: from tissue; host or cells: whole blood of follicular lymphoma patients after oral dosing
Description: as §1
(§4) At cycle 2 Day 1 pre, a timepoint corresponding to the 12 hour point when the next dose is to be given, the degree of inhibition is decreased; however, inhibition is re-established with the administration of the next dose.

PI3K-γ [7] = target: T2, PI3K-γ; assay: PI3K-γ target inhibition in follicular lymphoma patients after oral dosing; format: in vivo; design: from tissue; host or cells: whole blood of follicular lymphoma patients after oral dosing
Description: as §1, §4
Accordingly, BID should then re-establish inhibition in this 60-70% range.

T2 sequence (P48736 whole entry): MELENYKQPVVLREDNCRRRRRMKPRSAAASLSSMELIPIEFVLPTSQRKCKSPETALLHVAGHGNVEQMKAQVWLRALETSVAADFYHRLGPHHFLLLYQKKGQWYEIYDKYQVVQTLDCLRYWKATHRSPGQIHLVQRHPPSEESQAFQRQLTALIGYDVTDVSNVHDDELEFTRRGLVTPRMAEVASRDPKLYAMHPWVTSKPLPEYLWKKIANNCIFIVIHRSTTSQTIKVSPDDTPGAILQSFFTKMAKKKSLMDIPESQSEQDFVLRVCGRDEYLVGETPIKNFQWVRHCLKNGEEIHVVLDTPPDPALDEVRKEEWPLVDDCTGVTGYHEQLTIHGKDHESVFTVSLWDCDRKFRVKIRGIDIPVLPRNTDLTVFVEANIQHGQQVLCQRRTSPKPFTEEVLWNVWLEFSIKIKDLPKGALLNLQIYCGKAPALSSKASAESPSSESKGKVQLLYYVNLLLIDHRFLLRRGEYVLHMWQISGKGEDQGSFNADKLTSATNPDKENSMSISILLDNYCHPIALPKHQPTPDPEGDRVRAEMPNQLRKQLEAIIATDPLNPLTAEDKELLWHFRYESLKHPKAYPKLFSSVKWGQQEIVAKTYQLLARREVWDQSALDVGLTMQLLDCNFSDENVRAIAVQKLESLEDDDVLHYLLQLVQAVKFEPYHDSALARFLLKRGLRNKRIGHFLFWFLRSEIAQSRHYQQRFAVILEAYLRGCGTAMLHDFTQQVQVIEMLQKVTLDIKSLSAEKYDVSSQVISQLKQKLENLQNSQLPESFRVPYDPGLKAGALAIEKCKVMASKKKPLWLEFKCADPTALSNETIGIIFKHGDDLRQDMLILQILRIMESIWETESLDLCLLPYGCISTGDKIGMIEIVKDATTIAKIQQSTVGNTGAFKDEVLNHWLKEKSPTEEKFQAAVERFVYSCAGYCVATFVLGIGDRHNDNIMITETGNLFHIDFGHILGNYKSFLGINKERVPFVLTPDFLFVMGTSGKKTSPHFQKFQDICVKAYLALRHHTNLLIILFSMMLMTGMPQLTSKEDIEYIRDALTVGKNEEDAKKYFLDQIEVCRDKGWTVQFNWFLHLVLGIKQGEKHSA
T1 sequence (O00329 whole entry): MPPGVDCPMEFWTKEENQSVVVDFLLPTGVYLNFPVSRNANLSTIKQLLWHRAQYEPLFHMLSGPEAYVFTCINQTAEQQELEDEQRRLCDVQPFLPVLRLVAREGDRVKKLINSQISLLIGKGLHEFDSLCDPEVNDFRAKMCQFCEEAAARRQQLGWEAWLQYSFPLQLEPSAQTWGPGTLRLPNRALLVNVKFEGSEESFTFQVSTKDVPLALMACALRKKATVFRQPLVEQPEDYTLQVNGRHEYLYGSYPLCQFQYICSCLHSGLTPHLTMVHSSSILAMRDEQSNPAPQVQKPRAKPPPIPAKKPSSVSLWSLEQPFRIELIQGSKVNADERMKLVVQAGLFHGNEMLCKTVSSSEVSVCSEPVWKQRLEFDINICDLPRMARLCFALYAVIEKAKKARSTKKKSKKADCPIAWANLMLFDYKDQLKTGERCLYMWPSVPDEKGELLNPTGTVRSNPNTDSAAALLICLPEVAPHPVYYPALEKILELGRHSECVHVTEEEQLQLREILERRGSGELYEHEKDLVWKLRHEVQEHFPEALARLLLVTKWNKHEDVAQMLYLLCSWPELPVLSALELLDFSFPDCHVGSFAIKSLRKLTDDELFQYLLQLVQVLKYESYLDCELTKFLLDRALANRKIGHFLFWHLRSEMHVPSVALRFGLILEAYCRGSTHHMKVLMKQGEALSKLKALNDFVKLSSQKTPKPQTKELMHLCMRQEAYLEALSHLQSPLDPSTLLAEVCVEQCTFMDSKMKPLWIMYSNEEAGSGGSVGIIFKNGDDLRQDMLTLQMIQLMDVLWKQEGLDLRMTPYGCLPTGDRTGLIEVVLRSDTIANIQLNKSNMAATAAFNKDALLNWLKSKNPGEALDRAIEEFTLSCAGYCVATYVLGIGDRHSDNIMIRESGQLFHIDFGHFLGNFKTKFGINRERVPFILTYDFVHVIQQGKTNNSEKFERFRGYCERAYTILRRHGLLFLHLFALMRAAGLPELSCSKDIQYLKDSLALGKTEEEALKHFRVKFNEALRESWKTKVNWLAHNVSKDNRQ
T1 sequence (P27986 whole entry partner): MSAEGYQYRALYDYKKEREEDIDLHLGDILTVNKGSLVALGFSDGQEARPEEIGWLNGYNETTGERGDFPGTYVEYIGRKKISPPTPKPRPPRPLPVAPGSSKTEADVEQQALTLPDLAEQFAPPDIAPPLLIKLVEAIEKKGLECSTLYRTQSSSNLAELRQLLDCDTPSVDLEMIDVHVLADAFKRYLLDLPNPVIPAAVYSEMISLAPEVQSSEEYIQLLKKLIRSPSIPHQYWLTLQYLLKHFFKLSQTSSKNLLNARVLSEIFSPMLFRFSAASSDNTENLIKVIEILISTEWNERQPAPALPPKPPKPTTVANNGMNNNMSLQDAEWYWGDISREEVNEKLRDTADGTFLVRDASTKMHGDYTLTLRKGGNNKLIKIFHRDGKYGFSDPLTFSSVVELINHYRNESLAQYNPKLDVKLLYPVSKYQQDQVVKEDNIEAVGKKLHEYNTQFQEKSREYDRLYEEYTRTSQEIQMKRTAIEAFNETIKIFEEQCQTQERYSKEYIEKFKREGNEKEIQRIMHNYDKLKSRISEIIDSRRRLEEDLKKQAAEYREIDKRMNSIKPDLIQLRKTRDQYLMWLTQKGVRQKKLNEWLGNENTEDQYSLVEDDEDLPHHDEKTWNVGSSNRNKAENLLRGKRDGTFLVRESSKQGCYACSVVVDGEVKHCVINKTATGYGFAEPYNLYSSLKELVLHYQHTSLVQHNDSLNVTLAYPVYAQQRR

Structure (SMILES)	PI3K-δ inhibition at clinically achievable exposures (in words) (PI3K-δ [1])	PI3K-γ inhibition at clinically achievable exposures (in words) (PI3K-γ [2])	concentration of maximal effect on T cell expansion [3] [nM]	Cmax [5] [µM]	other results
CC[C@H](Nc1ncnc2nc[nH]c12)c1oc2ccccc2c(=O)c1-c1cccc(F)c1 [Tenalisib, (S)-2-(1-((7H-purin-6-yl)amino)propyl)-3-(3-fluorophenyl)-4H-chromen-4-one]	did not meaningfully inhibit	did not meaningfully inhibit	–	–	IC50 (PI3K-δ [1]; whole blood, inhibition of p-Akt in LPS-stimulated monocytes, read-out: PI3Kδ IC50): > 50 µM; PI3Kγ IC50 (PI3K-γ [2]; whole blood, inhibition of p-Akt in fMLP-stimulated monocytes): No inhibition
C[C@H](Nc1ncnc2[nH]cnc12)c1cc2cccc(Cl)c2c(=O)n1-c1ccccc1 [Duvelisib, (S)-3-(1-((9H-purin-6-yl)amino)ethyl)-8-chloro-2-phenylisoquinolin-1(2H)-one]	inhibited both PI3K-δ and PI3K-γ	inhibited both PI3K-δ and PI3K-γ	40	2.5	increase in T cell expansion ([3]; T cells from human donors or CLL patients): 3 to 4 fold; expression of T cell exhaustion markers (TIM-3, LAG-3) (T cells): reduces expression; proportion of early memory T cell populations [4]: increases the proportion of early memory T cell populations; cytotoxic activity of CAR-T cells to kill tumor cells (CD19 CAR-T cells): increases; degree of inhibition of PI3K-δ (PI3K-δ [6]; cycle 2 Day 1 pre (12 hour point before next dose)): decreased; inhibition at 25 mg (PI3K-δ [6]; human, follicular lymphoma patients, 25 mg oral, 1 and 4 hours after dosing): 90 to 95%; degree of inhibition of PI3K-γ (PI3K-γ [7]; cycle 2 Day 1 pre): decreased; inhibition of PI3K-γ (PI3K-γ [7]; follicular lymphoma patients, 25 mg, 1 and 4 hours): 60-70%
CC[C@H](Nc1ncnc2[nH]cnc12)c1nc2cccc(F)c2c(=O)n1-c1ccccc1 [Idelalisib, (S)-2-(1-(9H-purin-6-ylamino)propyl)-5-fluoro-3-phenylquinazolin-4(3H)-one]	single isoform inhibition; also recorded: sufficient to inhibit PI3K-δ	not sufficient to inhibit PI3K-γ	1000	4.8	–
CC(C)Oc1ccc(-c2nn([C@@H](C)c3oc4ccc(F)cc4c(=O)c3-c3cccc(F)c3)c3ncnc(N)c23)cc1F [Umbralisib]	–	–	–	9.2	IC50 (PI3K-γ [2]): 55 ± 16 µM
C[C@H](NC(=O)c1c(N)nn2cccnc12)c1cc2cccc(C#Cc3cnn(C)c3)c2c(=O)n1-c1ccccc1 [IPI-549, 2-amino-N-[(1S)-1-[8-[2-(1-methylpyrazol-4-yl)ethynyl]-1-oxo-2-phenylisoquinolin-3-yl]ethyl]pyrazolo[1,5-a]pyrimidine-3-carboxamide]	not PI3K-δ	–	–	9.1	–
